Values quoted from earlier work in patent US20060233842A1, “Microemulsion composition for oral administration of biphenyldimethyldicarboxylate” (priority 2002, published 2006).
Read-outs that look alike come from different tables or passages of the source.

CCOCCOCCO [transcutol, diethyleneglycol monoethylether]
LD50 for acute oral toxicity (Gattefosse product profile): 7.95 ml (specific gravity, 0.989)/kg

CC(=O)OCC(COC(C)=O)OC(C)=O [triacetine]
LD50 for acute oral toxicity: 1.1 g/kg
